The supplement of paper PMC7017272
± gives the standard deviation of the averaged measurements.

Key:
Conditions in all cases: treatment time: 3 days
UT-SCC-24A = test: maximal % inhibition of viability relative to DMSO; higher = stronger effect
Protocol: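 HNSCC cell lines (500 cells/well, 384-well) were cultured on plastic, on top of (2D) or embedded (3D) in Matrigel or human leiomyoma matrix Myogel (500 ug/mL; Myogel 3D mixed with rat collagen I). Cells were treated for 3 days with 5 ten-fold concentrations of each drug, and viability was read by CellTiter-Glo. Viability was normalised to DMSO (0% inhibition) and 100 uM benzethonium chloride (100% inhibition) controls and fitted with the FIMM DSRT pipeline to give IC50 (nM), maximal % inhibition and the drug sensitivity score (DSS). Suffixes _1/_2/_3 on drug names are replicates.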

UT-SCC-24B [1] = test: drug sensitivity score (DSS); higher = more sensitive; extreme values may be limits of the assay
Method in brief: (§1)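 Using 384-well plates, 500 cells/well of HPV-negative HNSCC cell lines were grown on plastic, on 500 µg/mL Matrigel or Myogel coatings, or embedded in Matrigel or Myogel with rat collagen I. They were treated with compounds at five 10-fold concentrations for 3 days, and luminescence from CellTiter-Glo 2.0 was normalised to vehicle (0.1% DMSO) and cell-killing control wells. IC50, maximal inhibition and drug sensitivity score were derived from percent-inhibition dose–response curves in the FIMM pipeline.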

UT-SCC-28 [2] = test: as above
Method in brief: as §1

UT-SCC-40 [3] = test: as above
Method in brief: as §1

UT-SCC-44 [4] = test: as above
Method in brief: as §1

UT-SCC-73 [5] = test: as above
Method in brief: as §1

UT-SCC-81 [6] = test: as above
Method in brief: as §1

UT-SCC-8 [7] = test: as above
Method in brief: as §1

UT-SCC-106A = test: relative IC50 (midpoint of the fitted curve; maximal inhibition may be below 50%); higher = less potent
Method in brief: as §1

UT-SCC-14 = test: as above
Method in brief: as §1

UT-SCC-24B [8] = test: as above
Method in brief: as §1

UT-SCC-28 [9] = test: as above
Method in brief: as §1

UT-SCC-40 [10] = test: as above
Method in brief: as §1

UT-SCC-42A = test: as above
Method in brief: as §1

UT-SCC-42B = test: as above
Method in brief: as §1

UT-SCC-44 [11] = test: as above
Method in brief: as §1

UT-SCC-73 [12] = test: as above
Method in brief: as §1

UT-SCC-81 [13] = test: as above
Method in brief: as §1

UT-SCC-8 [14] = test: as above
Method in brief: as §1

[15] = culture condition: embedded in Matrigel
[16] = culture condition: embedded in Myogel + collagen I
[17] = culture condition: on top of Matrigel
[18] = culture condition: on top of Myogel
[19] = culture condition: plastic 2D (no matrix)

relative IC50 (UT-SCC-106A; [15]): 0.319 µM
relative IC50 (UT-SCC-106A; [16]): 2.83 µM
relative IC50 (UT-SCC-106A; [17]): 0.171 µM
relative IC50 (UT-SCC-106A; [18]): 2.27 µM
relative IC50 (UT-SCC-106A; [19]): 0.126 µM
relative IC50 (UT-SCC-14; [15]): 0.049 µM
relative IC50 (UT-SCC-14; [16]): 0.97 µM
relative IC50 (UT-SCC-14; [17]): 0.0591 µM
relative IC50 (UT-SCC-14; [18]): 0.31 µM
relative IC50 (UT-SCC-14; [19]): 0.0612 µM
relative IC50 (UT-SCC-24B [8]; [15]): 0.253 µM
relative IC50 (UT-SCC-24B [8]; [16]): 1.53 µM
relative IC50 (UT-SCC-24B [8]; [17]): 0.234 µM
relative IC50 (UT-SCC-24B [8]; [18]): 1.58 µM
relative IC50 (UT-SCC-24B [8]; [19]): 0.0631 µM
relative IC50 (UT-SCC-28 [9]; [15]): 3.42 µM
relative IC50 (UT-SCC-28 [9]; [16]): 1.51 µM
relative IC50 (UT-SCC-28 [9]; [17]): 1.63 µM
relative IC50 (UT-SCC-28 [9]; [19]): 1.76 µM
relative IC50 (UT-SCC-40 [10]; [15]): 0.0489 µM
relative IC50 (UT-SCC-40 [10]; [16]): 1.31 µM
relative IC50 (UT-SCC-40 [10]; [17]): 0.0658 µM
relative IC50 (UT-SCC-40 [10]; [18]): 1.27 µM
relative IC50 (UT-SCC-40 [10]; [19]): 0.211 µM
relative IC50 (UT-SCC-42A; [15]): 0.253 µM
relative IC50 (UT-SCC-42A; [16]): 2.02 µM
relative IC50 (UT-SCC-42A; [17]): 0.205 µM
relative IC50 (UT-SCC-42A; [18]): 1.27 µM
relative IC50 (UT-SCC-42A; [19]): 0.238 µM
relative IC50 (UT-SCC-42B; [15]): 0.0759 µM
relative IC50 (UT-SCC-42B; [17]): 0.299 µM
relative IC50 (UT-SCC-42B; [18]): 2.47 µM
relative IC50 (UT-SCC-42B; [19]): 0.808 µM
relative IC50 (UT-SCC-44 [11]; [15]): 3.36 µM
relative IC50 (UT-SCC-44 [11]; [16]): 2.36 µM
relative IC50 (UT-SCC-44 [11]; [17]): 1.66 µM
relative IC50 (UT-SCC-44 [11]; [18]): 2.05 µM
relative IC50 (UT-SCC-44 [11]; [19]): 1.91 µM
relative IC50 (UT-SCC-73 [12]; [15]): 2.12 µM
relative IC50 (UT-SCC-73 [12]; [16]): 2.07 µM
relative IC50 (UT-SCC-73 [12]; [17]): 1.66 µM
relative IC50 (UT-SCC-73 [12]; [18]): 1.75 µM
relative IC50 (UT-SCC-73 [12]; [19]): 1.65 µM
relative IC50 (UT-SCC-81 [13]; [15]): 0.0365 µM
relative IC50 (UT-SCC-81 [13]; [16]): 1.51 µM
relative IC50 (UT-SCC-81 [13]; [17]): 0.052 µM
relative IC50 (UT-SCC-81 [13]; [18]): 1.59 µM
relative IC50 (UT-SCC-81 [13]; [19]): 0.0696 µM
relative IC50 (UT-SCC-8 [14]; [15]): 0.0349 µM
relative IC50 (UT-SCC-8 [14]; [16]): 3.64 µM
relative IC50 (UT-SCC-8 [14]; [17]): 0.0357 µM
relative IC50 (UT-SCC-8 [14]; [18]): 0.912 µM
relative IC50 (UT-SCC-8 [14]; [19]): 0.0393 µM
Structure (SMILES): C=CC(=O)Nc1cc2c(Nc3ccc(F)c(Cl)c3)ncnc2cc1OCCCN1CCOCC1 [Canertinib]
maximal % inhibition of viability (UT-SCC-24A; [15]): 99.57 ± 0.38%
maximal % inhibition of viability (UT-SCC-24A; [16]): 99.17 ± 0.74%
maximal % inhibition of viability (UT-SCC-24A; [17]): 99.7 ± 0.36%
maximal % inhibition of viability (UT-SCC-24A; [18]): 99 ± 0.87%
maximal % inhibition of viability (UT-SCC-24A; [19]): 99.5 ± 0.62%
drug sensitivity score (UT-SCC-24B [1]; [15]): 17.8 ± 0.7 DSS
drug sensitivity score (UT-SCC-24B [1]; [16]): 9.13 ± 0.25 DSS
drug sensitivity score (UT-SCC-24B [1]; [17]): 18.1 ± 0.57 DSS
drug sensitivity score (UT-SCC-24B [1]; [18]): 9.17 ± 0.12 DSS
drug sensitivity score (UT-SCC-24B [1]; [19]): 26.2 ± 0.55 DSS
drug sensitivity score (UT-SCC-28 [2]; [15]): 4.2 ± 0.5 DSS
drug sensitivity score (UT-SCC-28 [2]; [16]): 8.6 ± 0.27 DSS
drug sensitivity score (UT-SCC-28 [2]; [17]): 7.8 ± 0.6 DSS
drug sensitivity score (UT-SCC-28 [2]; [19]): 7 ± 0.56 DSS
drug sensitivity score (UT-SCC-40 [3]; [15]): 27.4 ± 1.1 DSS
drug sensitivity score (UT-SCC-40 [3]; [16]): 10.4 ± 1.9 DSS
drug sensitivity score (UT-SCC-40 [3]; [17]): 26.2 ± 0.62 DSS
drug sensitivity score (UT-SCC-40 [3]; [18]): 10 ± 1.6 DSS
drug sensitivity score (UT-SCC-40 [3]; [19]): 18.6 ± 0.5 DSS
drug sensitivity score (UT-SCC-44 [4]; [15]): 4 ± 0.3 DSS
drug sensitivity score (UT-SCC-44 [4]; [16]): 6.57 ± 1.5 DSS
drug sensitivity score (UT-SCC-44 [4]; [17]): 8.2 ± 0.27 DSS
drug sensitivity score (UT-SCC-44 [4]; [18]): 7.47 ± 2.1 DSS
drug sensitivity score (UT-SCC-44 [4]; [19]): 7.63 ± 1.1 DSS
drug sensitivity score (UT-SCC-73 [5]; [15]): 7.6 ± 1.1 DSS
drug sensitivity score (UT-SCC-73 [5]; [16]): 7.73 ± 2.5 DSS
drug sensitivity score (UT-SCC-73 [5]; [17]): 8.83 ± 0.23 DSS
drug sensitivity score (UT-SCC-73 [5]; [18]): 8.53 ± 0.75 DSS
drug sensitivity score (UT-SCC-73 [5]; [19]): 8.87 ± 0.15 DSS
drug sensitivity score (UT-SCC-81 [6]; [15]): 29.4 ± 1.3 DSS
drug sensitivity score (UT-SCC-81 [6]; [16]): 9.43 ± 3.1 DSS
drug sensitivity score (UT-SCC-81 [6]; [17]): 27.53 ± 0.12 DSS
drug sensitivity score (UT-SCC-81 [6]; [18]): 8.9 ± 0.27 DSS
drug sensitivity score (UT-SCC-81 [6]; [19]): 26.1 ± 0.51 DSS
drug sensitivity score (UT-SCC-8 [7]; [15]): 29.83 ± 0.058 DSS
drug sensitivity score (UT-SCC-8 [7]; [16]): 4.77 ± 0.81 DSS
drug sensitivity score (UT-SCC-8 [7]; [17]): 29.7 ± 0.64 DSS
drug sensitivity score (UT-SCC-8 [7]; [18]): 11.6 ± 2.1 DSS
drug sensitivity score (UT-SCC-8 [7]; [19]): 29 ± 0.85 DSS
